Here are results for one compound from patent US20190151289A1, “Identification of Small Molecule Inhibitors of Jumonji AT-Rich Interactive Domain 1A (JARID1A) Histone Demethylase” (YALE UNIVERSITY, priority 2016, published 2019).

Common to all, as to assay type: cell-based, human
Test [1] concerns H3K4 methylation in ZR-75-1 cells. The test can be described thus: Western blot of global H3K4 methylation, ZR-75-1. To be noted: ZR-75-1, 48 hour treatment. How it is done:
Sf21 insect cells were cultured at 27° C. in Grace's medium (Gibco) with 10% fetal bovine serum (FBS) and 1% penicillin/streptomycin. HeLa cells were cultured in DMEM (Gibco) with 10% FBS and 1% penicillin/streptomycin. BT474, MCF7, MDA-MB-231, PC9 and ZR-75-1 cells were cultured in RPMI 1640 (Gibco) with 10% FBS and 1% penicillin/streptomycin. MCF10A cells were cultured as using previously described methods (Sayegh et al., 2013, J. Biol. Chem. 9408-9417). All human cells were cultured at 37° C. and 5% carbon dioxide. HeLa and MCF7 cell lines were authenticated using short tandem repeat profiling performed at the DNA Analysis Facility on Science Hill at Yale University. All other human cell lines used were within 10 passages after being obtained from the American Type Culture Collection.
Cells were lysed using previously described methods (Lin et al., 2011, Proc. Natl. Acad. Sci. U.S.A. 108:13379-13386). Histones were separated by centrifugation, resuspended in Laemmeli buffer, and sonicated. Protein concentration of cell lysates was measured by Bradford assay. Samples in Laemmeli buffer were boiled 10 minutes at 95° C. and loaded onto 7% (whole cell lysates) or 18% (histones) SDS-PAGE gels. […] Signal was quantified using ImageJ software.

The test system of another test is HeLa cells. In words: WST-1 cell proliferation assay, HeLa. The conditions noted are these: after 3 days. The protocol: WST-1 reagent from Roche Applied Sciences (11644807001) was used to measure cell number before drug addition and after 3 or 5 days of growth using previously described methods (Sayegh et al., 2013, J. Biol. Chem. 9408-9417). Cells were seeded in 96-well plates at the following number of cells per well: HeLa (2000), MCF7 (2000), ZR-75-1 (1000), MCF10A (1000), MDA-MB-231(5000). Assays were performed in technical quadruplicates and biological triplicates. DMSO was used at 0.1%. Relative absorbance was calculated by subtracting the average background (media only) signal, dividing by the average signal on day 0, and then dividing by the average day 5/day 0 ratio for the DMSO controls. Significance was calculated by unpaired, two-tailed student's t-test using GraphPad Prism 6.0 software.

In a further test the test system is BT474 cells. In words: Colony formation assay, BT474 (trastuzumab tolerance). The protocol: (§1) Cells were seeded in 6-well plates at low density: HeLa, MCF7, BT474, and PC9 cells at 1000, 2000, 2500, and 2000 cells/well respectively. Media containing the prescribed drugs or 0.1% DMSO was replaced every 3 days. Trastuzumab was used at 5 μg/ml. Gefitinib was used at 2 μM. YUKA1 was used at 50 or 100 μM. Doxycycline was used at 1 μg/ml for 3 days. After 7-42 days depending on the rate of cell growth, cells were fixed in 4% para-formaldehyde in phosphate-buffered saline for 10 minutes rocking at room temperature. They were incubated in 0.05% crystal violet in double-distilled water for 30 minutes rocking at room temperature, washed with water, and dried 24 hours before photographing. ColonyArea, a plugin for ImageJ software, was used for quantification (Guzman et al., 2014, PloS One 9:e92444). Unpaired, two-tailed student's t-test was used to determine significance using GraphPad Prism 6.0 software.

In another test the test system is MDA-MB231 cells. In words: Colony formation assay, MDA-MB231. The conditions noted are these: 5 μM KDMS-C70 or 50 or 100 μM YUKA1. How it is done: as §1
HeLa (FIG. 11A) and MDA-MB231 cells (FIG. 11B) were treated with DMSO, 5 μM KDMS-C70 or 50 or 100 μM YUKA1 in colony-formation assays. The tables in FIGS. 11C and 11D depict the quantification of experimental data.

For `C=CCOc1c(CNn2cnnc2S)cccc1OC` [YUKA1, 4-([2-(allyloxy)-3-methoxybenzyl]amino)-4H-1,2,4-triazole-3-thiol], the “global H3K4me3 levels” value in test [1] is given as “increased global H3K4me3 levels”. Besides, in the test with HeLa cells, the “cell proliferation relative to DMSO” value is given as “less than half of DMSO-treated cells”. For the same compound, the “cell growth, compound alone” value in the test on BT474 cells (BT474, compound alone) is given as “not changed”. Moreover, in the test with BT474 cells (BT474, trastuzumab 5 μg/ml plus compound), the “emergence of colonies under trastuzumab” value is on record as “significantly less”. For the same compound, the “growth in colony-formation assay” value in the test with MDA-MB231 cells is recorded as “suppresses growth”.
